Data set [1] is described as follows: Cytotoxicity against human CD34+ cells assessed as reduction in colony formation at 1 to 5 uM measured after 7 to 11 days. It counts as cell-based. As to conditions: cd34-positive (myeloid/lymphoid) cell, dose 1-5 µM, time 7-11 day.
Data set [2] deals with Bromodomain-containing protein 4 (Homo sapiens) (UniProt O60885). The experiment in a line: Inhibition of BRD4 in human HEL cells harboring JAK2 V617F mutant assessed as metabolic activity at 1 uM measured after 72 hrs by MTT assay relative to control. In kind it is cell-based. Details: Activity: scale not given: the % may be the effect or the level left.
The subject of data set [3] is MOLM-14. Description: Induction of apoptosis in human MOLM-14 cells harboring FLT3-ITD mutant assessed as cleavage of PARP-1 at 5 uM measured after 24 to 48 hrs by Western blot analysis. It counts as functional, cell-based. As to conditions: time hrs 24-48.
The target in data set [4] is Bromodomain-containing protein 4 (Homo sapiens) (UniProt O60885). Description: Binding affinity to N-terminal His-tagged human recombinant BRD4 bromodomain 1 (44-170 residues) expressed in Escherichia coli assessed as change in melting temperature at 10 uM by BromoMELT assay.
Data set [5] concerns HEL. The experiment in a line: Induction of apoptosis in human HEL cells harboring JAK2 V617F mutant assessed as cleavage of PARP-1 at 5 uM measured after 24 to 48 hrs by Western blot analysis. In kind it is functional, cell-based. As to conditions: time hrs 24-48. In general terms: Immunoblotting shows a protein as a band on a membrane.
Data set [6] has as its target Bromodomain-containing protein 2 (Homo sapiens) (UniProt P25440). The experiment in a line: Binding affinity to N-terminal His-tagged human recombinant BRD2 bromodomain 1 (71 to 194 residues) expressed in Escherichia coli assessed as change in melting temperature at 10 uM by BromoMELT assay.
The target in data set [7] is Bromodomain-containing protein 4 (Homo sapiens) (UniProt O60885). Description: Inhibition of BRD4 in human K562 cells harboring BCR-ABL assessed as reduction in cell proliferation at 1 to 5 uM after 72 hrs by tryphan blue staining based assay. As to conditions: dose microM 1-5, time 72.0 hrs.
Data set [8] relates to MOLM-14. Description: Inhibition of BET in human MOLM-14 cells harboring FLT3-ITD mutant assessed as increase in HEXIM1 protein expression at 5 uM preincubated in medium for 24 to 48 hrs followed by cell addition and measured after 24 hrs by Western blot analysis. In kind it is cell-based. As to conditions: time 96.0 hrs.
The target in data set [9] is Bromodomain-containing protein 4 (Homo sapiens) (UniProt O60885). Description: Inhibition of BRD4 in human MOLM-14 cells harboring FLT3-ITD mutant assessed as cell viability at 5 uM measured after 72 hrs by tryphan blue staining based assay relative to control.
Data set [10] concerns K562. Description: Induction of apoptosis in human K562 cells harboring BCR-ABL assessed as cleavage of PARP-1 at 5 uM measured after 24 to 48 hrs by Western blot analysis. It counts as functional, cell-based. As to conditions: time hrs 24-48.
For data set [11], the system named is MOLM-14. Description: Inhibition of BET in human MOLM-14 cells harboring FLT3-ITD mutant assessed as decrease in AURKB protein expression at 5 uM measured after 24 to 48 hrs by Western blot analysis. It counts as cell-based. As to conditions: time hrs 24-48.
In a further data set the test system is BMMC. Description: Anticlonogenic activity against AML patient derived BMMC harboring FLT3-ITD/FLT3-TKD mutant assessed as reduction in colony formation at 1 to 5 uM measured after 7 to 11 days. In kind it is functional, tissue-based. As to conditions: Homo sapiens, dose microM 1-5, time day 7-11.
Data set [12] relates to K562. The experiment in a line: Inhibition of BET in human K562 cells harboring BCR-ABL assessed as increase in HEXIM1 protein expression at 5 uM measured after 24 to 48 hrs by Western blot analysis. It counts as cell-based. As to conditions: time hrs 24-48.
Data set [13] addresses Bromodomain-containing protein 4 (Homo sapiens) (UniProt O60885). Description: Inhibition of BRD4 in human HEL cells harboring JAK2 V617F mutant assessed as cell viability at 5 uM measured after 72 hrs by tryphan blue staining based assay relative to control.
Data set [14] has the same target. The experiment in a line: Inhibition of BRD4 in human HEL cells harboring JAK2 V617F mutant assessed as reduction in cell proliferation at 1 to 5 uM after 72 hrs by tryphan blue staining based assay. As to conditions: dose microM 1-5, time 72.0 hrs.
Data set [15] is described as follows: Cytotoxicity against human PBMC assessed as reduction in colony formation at 1 to 5 uM measured after 7 to 11 days. It counts as tissue-based. As to conditions: dose 1-5 µM, time 7-11 day.
Data set [16] has as its target Bromodomain-containing protein 4 (Homo sapiens) (UniProt O60885). The experiment in a line: Inhibition of BRD4 in human HEL cells harboring JAK2 V617F mutant assessed as cell cycle arrest by measuring increase in cell population at G0/G1 phase at 1 to 5 uM measured after 24 hrs by propidium iodide staining based FACS analysis. As to conditions: dose microM 1-5, time 24.0 hrs. (In general: In flow cytometry, cells or beads pass a laser one at a time.)

The target is the same in data set [17]. The experiment in a line: Inhibition of BRD4 in human HEL cells harboring JAK2 V617F mutant assessed as cell cycle arrest by measuring increase in cell population at sub-G1 phase at 1 to 5 uM measured after 24 hrs by propidium iodide staining based FACS analysis. As to conditions: dose microM 1-5, time 24.0 hrs.
The test system of data set [18] is MOLM-14. Description: Inhibition of BET in human MOLM-14 cells harboring FLT3-ITD mutant assessed as increase in HEXIM1 protein expression at 5 uM measured after 24 hrs by Western blot analysis. It counts as cell-based.
The target in data set [19] is Bromodomain-containing protein 4 (Homo sapiens) (UniProt O60885). Description: Inhibition of BRD4 in human MOLM-14 cells harboring FLT3-ITD mutant assessed as cell cycle arrest by measuring increase in cell population at sub-G1 phase at 1 to 5 uM measured after 24 hrs by propidium iodide staining based FACS analysis. As to conditions: dose microM 1-5, time 24.0 hrs.

Data set [20] deals with HEL. The experiment in a line: Inhibition of BET in human HEL cells harboring JAK2 V617F mutant assessed as increase in HEXIM1 protein expression at 5 uM measured after 24 hrs by Western blot analysis. In kind it is cell-based.
Data set [21] deals with Bromodomain-containing protein 4 (Homo sapiens) (UniProt O60885). The experiment in a line: Inhibition of BRD4 in human MOLM-14 cells harboring FLT3-ITD mutant assessed as metabolic activity at 1 uM measured after 72 hrs by MTT assay relative to control. In kind it is cell-based. Details: scale not given: the % may be the effect or the level left. For orientation: Tetrazolium dyes change colour on reduction, which living cells bring about.

The target is the same in data set [22]. Description: Inhibition of BRD4 in human MOLM-14 cells harboring FLT3-ITD mutant assessed as reduction in cell proliferation at 1 to 5 uM after 72 hrs by tryphan blue staining based assay. As to conditions: dose microM 1-5, time 72.0 hrs.
For data set [23] the target is unchanged. Description: Inhibition of BRD4 in human K562 cells harboring BCR-ABL assessed as decrease in metabolic activity at 0.01 to 20 uM measured after 72 hrs by MTT assay. In kind it is cell-based. As to conditions: dose microM 0.01-20, time 72.0 hrs.
Data set [24] has as its system HEL. Description: Inhibition of BET in human HEL cells harboring JAK2 V617F mutant assessed as decrease in AURKB protein expression at 5 uM measured after 24 to 48 hrs by Western blot analysis. In kind it is cell-based. As to conditions: time hrs 24-48.
Data set [25] has as its target Bromodomain-containing protein 4 (Homo sapiens) (UniProt O60885). The experiment in a line: Inhibition of BRD4 in human MOLM-14 cells harboring FLT3-ITD mutant assessed as cell cycle arrest by measuring increase in cell population at G0/G1 phase at 1 to 5 uM measured after 24 hrs by propidium iodide staining based FACS analysis. As to conditions: dose microM 1-5, time 24.0 hrs.

Data set [26] relates to HEL. The experiment in a line: Inhibition of BET in human HEL cells harboring JAK2 V617F mutant assessed as increase in HEXIM1 protein expression at 5 uM preincubated in medium for 24 to 48 hrs followed by cell addition and measured after 24 hrs by Western blot analysis. In kind it is cell-based. As to conditions: time 96.0 hrs.
In data set [27] the test system is K562. Description: Inhibition of BET in human K562 cells harboring BCR-ABL assessed as increase in HEXIM1 protein expression at 5 uM preincubated in medium for 24 to 48 hrs followed by cell addition and measured after 24 hrs by Western blot analysis. It counts as cell-based. As to conditions: time 96.0 hrs.
Data set [28] has as its target Bromodomain-containing protein 4 (Homo sapiens) (UniProt O60885). The experiment in a line: Inhibition of BRD4 in human HEL cells harboring JAK2 V617F mutant assessed as cell cycle arrest by measuring decrease in cell population at S phase at 1 to 5 uM measured after 24 hrs by propidium iodide staining based FACS analysis. As to conditions: dose microM 1-5, time 24.0 hrs.

Data set [29] has the same target. Description: Inhibition of BRD4 in human MOLM-14 cells harboring FLT3-ITD mutant assessed as cell cycle arrest by measuring decrease in cell population at S phase at 1 to 5 uM measured after 24 hrs by propidium iodide staining based FACS analysis. As to conditions: dose microM 1-5, time 24.0 hrs.
Data set [30] has the same target. The experiment in a line: Inhibition of BRD4 in human K562 cells harboring BCR-ABL assessed as decrease in metabolic activity at 10 uM measured after 72 hrs by MTT assay. It counts as cell-based.
Data set [31] shares this target. The experiment in a line: Inhibition of BRD4 in human MOLM-14 cells harboring FLT3-ITD mutant assessed as decrease in metabolic activity at 10 uM measured after 72 hrs by MTT assay. It counts as cell-based.
Data set [32] shares this target. Description: Inhibition of BRD4 in human HEL cells harboring JAK2 V617F mutant assessed as decrease in metabolic activity at 10 uM measured after 72 hrs by MTT assay. It counts as cell-based.
Data set [33] deals with HEL. The experiment in a line: Inhibition of BET in human HEL cells harboring JAK2 V617F mutant assessed as increase in HEXIM1 protein expression at 5 uM measured after 24 to 48 hrs by Western blot analysis. In kind it is cell-based. As to conditions: time hrs 24-48.
For data set [34], the system named is K562. The experiment in a line: Inhibition of BET in human K562 cells harboring BCR-ABL assessed as decrease in AURKB protein expression at 5 uM measured after 48 hrs by Western blot analysis. In kind it is cell-based.
Data set [35] relates to MOLM-14. Description: Inhibition of BET in human MOLM-14 cells harboring FLT3-ITD mutant assessed as increase in HEXIM1 protein expression at 5 uM measured after 24 to 48 hrs by Western blot analysis. As to conditions: time hrs 24-48. In kind it is cell-based.
Data set [36] concerns MOLM-14. Description: Inhibition of BET in human MOLM-14 cells harboring FLT3-ITD mutant assessed as decrease in AURKB protein expression at 5 uM measured after 48 hrs by Western blot analysis. It counts as cell-based.

The source made the active and inactive calls. The rule behind the calls is not given here.

Bromodomain-containing protein 2 (Homo sapiens), sequence (P25440 whole entry, looked up, the tested form may be a part): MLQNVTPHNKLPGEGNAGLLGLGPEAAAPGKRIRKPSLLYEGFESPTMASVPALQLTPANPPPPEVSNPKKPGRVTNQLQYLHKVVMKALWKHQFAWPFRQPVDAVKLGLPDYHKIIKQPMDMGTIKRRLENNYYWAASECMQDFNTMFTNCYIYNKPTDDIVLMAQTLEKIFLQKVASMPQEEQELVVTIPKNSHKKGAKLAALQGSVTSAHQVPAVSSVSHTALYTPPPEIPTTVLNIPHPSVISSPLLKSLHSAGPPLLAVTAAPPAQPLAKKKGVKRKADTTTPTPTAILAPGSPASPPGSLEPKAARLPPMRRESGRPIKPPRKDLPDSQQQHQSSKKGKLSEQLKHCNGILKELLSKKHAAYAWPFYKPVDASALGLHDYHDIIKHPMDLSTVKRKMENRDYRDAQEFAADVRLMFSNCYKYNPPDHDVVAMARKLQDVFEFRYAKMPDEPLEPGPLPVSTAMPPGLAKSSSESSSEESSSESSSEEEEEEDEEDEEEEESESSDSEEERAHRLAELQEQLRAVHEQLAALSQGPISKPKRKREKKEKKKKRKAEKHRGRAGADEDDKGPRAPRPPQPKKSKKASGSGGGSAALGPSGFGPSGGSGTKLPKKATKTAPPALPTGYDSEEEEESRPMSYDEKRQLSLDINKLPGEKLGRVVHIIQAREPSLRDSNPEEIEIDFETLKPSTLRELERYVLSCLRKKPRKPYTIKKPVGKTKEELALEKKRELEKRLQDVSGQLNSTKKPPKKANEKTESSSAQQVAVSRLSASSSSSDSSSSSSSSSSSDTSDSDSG

In the case of `CN1Cc2cc(N=[S@@](C)(=O)c3ccccc3)ccc2NC1=O`, the Activity result in data set [1] is “Toxic”; in [2] it was 37%; in [9], 57%; in data set [13], 55%; in [15] it was “Toxic”; in [21] it was 55%. Also, the outcome with MOLM-14 [3], in the data set on HEL [5] and with BMMC was Active. The ΔTm – broadly, the change in melting temperature against a reference sample – in [4] was 5 °C; in data set [6] it was 3.5 °C. Also, the inhibition entry (in data set [7]; with MOLM-14 [8]; in the data set with MOLM-14 [11]; in the data set on K562 [12]; in [14]; in data set [16]) was “Active” in each case. For the same molecule, the inhibition result (in data set [17]; in the data set with MOLM-14 [18]; in data set [19]; with HEL [20]; in [22]; in the data set with HEL [24]) was “Active” each time. Besides, the inhibition result (in data set [25]; in the data set with HEL [26]; with K562 [27]; in [28]; in [29]) was “Active” each time. Also, the outcome with K562 [10] was inactive. For the same molecule, the inhibition result in [23] was “inactive”.
For the molecule `COc1ccccc1S(C)(=O)=Nc1ccc2c(c1)CN(C)C(=O)N2` (stereo unspecified), in data set [30], the inhibition result is “inactive”. Also, the inhibition result in data set [31] and in data set [32] was “Active” in each case.
Take `COc1ccccc1S(=O)(=O)Nc1ccc2c(c1)CN(C)C(=O)N2`: the Activity entry in data set [1] and in data set [15] was “Toxic” each time. The ΔTm in [6] is 3.5 °C. In addition, in the data set with BMMC, the result was Active. The inhibition result in the data set on K562 [12], in the data set on MOLM-14 [18] and with HEL [20] was “Active” each time.
As to `CN1Cc2cc(N=S(C)(=N)c3ccccc3)ccc2NC1=O` (stereo unspecified), the inhibition result in [30] was “inactive”. Moreover, the inhibition result in data set [31] and in [32] was “Active” each time.
Consider `CN1Cc2cc(N=S(C)(=Nc3ccccc3)c3ccccc3)ccc2NC1=O` (stereo unspecified), for which the inhibition entry in data set [30] is “inactive”. Moreover, the inhibition result in [31] and in [32] was “Active” in each case.
`CN1Cc2cc(N=[S@](C)(=O)c3ccccc3)ccc2NC1=O`: the inhibition result (in data set [2]; in the data set on HEL [33]; in the data set on MOLM-14 [35]) was “inactive” each time. The result in the data set on MOLM-14 [3] and in the data set on HEL [5] was inactive. The inhibition result with K562 [34] and in the data set on MOLM-14 [36] was “Active” throughout.
In the case of `CN=S(C)(=Nc1ccc2c(c1)CN(C)C(=O)N2)c1ccccc1` (stereo unspecified), the inhibition entry in data set [30] was “inactive”. For the same molecule, the inhibition result in [31] and in data set [32] was “Active” each time.

For the origin of these results see ChEMBL document CHEMBL4725438, “Chiral Analogues of PFI-1 as BET Inhibitors and Their Functional Role in Myeloid Malignancies” (ACS Med Chem Lett, 2020).
